Laboratory results reported in US20250171498A1, “ANTIBIOTIC COMPOUNDS, FORMULATIONS AND METHODS OF USE” (UNIVERSITEIT LEIDEN, priority 2022, published 2025).
Converted amounts (≈) assume the structure as drawn. *1 amine or outer side, *2 acyl side, *3 side chain or, on linkers, in order; H or OH if unused. Where a SMILES comes first, the peptide text is derived from it. Bridges are numbered along the chain shown (N, C = ends). [ ]: non-standard residue; d: D form. The star is where a group is joined. Phenylthio(4-OPh) = c1ccc(Oc2ccc(S*)cc2)cc1; X1 = CC(C)CCCCC[C@@H](N[*:1])C(=O)[*:2]; S(2-cyclohexylethyl) = C1CCC(CCS*)CC1; dPen = CC(C)(S)[C@@H](N)C(=O)O; X3 = O=C(OCCSSCc1cccc(Cl)c1)*; S(3-Methylbutyl) = CC(C)CCS*; dDap = NC[C@@H](N)C(=O)O; Dab = NCC[C@H](N)C(=O)O; X2 = CC(C)CCSSCCOC(=O)*; Dap = NC[C@H](N)C(=O)O; X5 = CC(C)CCCCS*; Mpa = O=C(O)CCS

Tests used:
Type in all cases: cell-based
A. Baumanni (ATCC 19606) = details: ATCC 19606
Procedure: (§1) Compounds were prepared according to scheme 2, 3, 4, 6, 7, or 8 above, preparing different sets of compounds with different substitution patterns. All polymyxin analogues prepared were tested for their anti-bacterial activity on relevant Gram-negative strains (Table B). Polymyxin B and PMBN were taken along as references. In addition, the toxicity on renal Proximal Tubular Epithelial Cells (PTECs) was evaluated.
(§2) 3rd Generation compounds were also subjected to testing for their anti-bacterial activity on relevant Gram-negative strains (Table C). Polymyxin B and PMBN were taken along as references. In addition, the toxicity on renal Proximal Tubular Epithelial Cells (PTECs) was evaluated, see Table C.

E. Coli (ATCC 25922) = details: ATCC 25922
Procedure: as §1, §2

[1] = system: K. Pneumoniae (ATCC 13883); details: ATCC 13883
Procedure: as §1, §2

[2] = system: P. Aeruginosa (ATCC 27853); details: ATCC 27853
Procedure: as §1, §2

[3] = system: renal Proximal Tubular Epithelial Cells (PTECs); assay: Toxicity on renal Proximal Tubular Epithelial Cells
Procedure: as §1, §2

Row | Structure (SMILES) | MIC A. Baumanni (ATCC 19606) (A. Baumanni (ATCC 19606)) [µg/mL] | MIC E. Coli (ATCC 25922) (E. Coli (ATCC 25922)) [µg/mL] | MIC K. Pneumoniae (ATCC 13883) [1] [µg/mL] | MIC P. Aeruginosa (ATCC 27853) [2] [µg/mL] | PTEC Toxicity (relative to polymyxin B) [3]
1 | CC(C)CCSSC[C@@H](N)C(=O)N[C@H](C(=O)N[C@@H](CCN)C(=O)N[C@H]1CCNC(=O)[C@H]([C@@H](C)O)NC(=O)[C@H](CCN)NC(=O)[C@H](CCN)NC(=O)[C@H](CC(C)C)NC(=O)[C@@H](Cc2ccccc2)NC(=O)[C@H](CCN)NC1=O)[C@@H](C)O [drawing 95] (H-[dC](S(3-Methylbutyl))T[Dab][Dab][Dab][dF]L[Dab][Dab]T; lactam 4-C) | 1 (≈ 0.856 µM) | 1 (≈ 0.856 µM) | 0.5 (≈ 0.428 µM) | 1 (≈ 0.856 µM) | 4.7
2 | CC(C)CCCCC[C@@H](N)C(=O)N[C@H](C(=O)N[C@@H](CN)C(=O)N[C@H]1CCNC(=O)[C@H]([C@@H](C)O)NC(=O)[C@H](CCN)NC(=O)[C@H](CCN)NC(=O)[C@H](CC(C)C)NC(=O)[C@@H](Cc2ccccc2)NC(=O)[C@H](CCN)NC1=O)[C@@H](C)O (H-[X1]T[Dap][Dab][Dab][dF]L[Dab][Dab]T; lactam 4-C) | 0.25 (≈ 0.224 µM) | 1 (≈ 0.894 µM) | 0.25 (≈ 0.224 µM) | 1 (≈ 0.894 µM) | 7.8
3 | CC(C)CCSSCCOC(=O)N[C@H](C(=O)N[C@H](CN)C(=O)N[C@H]1CCNC(=O)[C@H]([C@@H](C)O)NC(=O)[C@H](CCN)NC(=O)[C@H](CCN)NC(=O)[C@H](CC(C)C)NC(=O)[C@@H](Cc2ccccc2)NC(=O)[C@H](CCN)NC1=O)[C@@H](C)O (X2-T[dDap][Dab][Dab][dF]L[Dab][Dab]T; lactam 3-C) |  | 4 (≈ 3.46 µM) | 2 (≈ 1.73 µM) | 2 (≈ 1.73 µM) | 2.9
4 | CC(C)CCSSC(C)(C)[C@@H](N)C(=O)N[C@H](C(=O)N[C@@H](CN)C(=O)N[C@H]1CCNC(=O)[C@H]([C@@H](C)O)NC(=O)[C@H](CCN)NC(=O)[C@H](CCN)NC(=O)[C@H](CC(C)C)NC(=O)[C@@H](Cc2ccccc2)NC(=O)[C@H](CCN)NC1=O)[C@@H](C)O (H-[dPen](S(3-Methylbutyl))T[Dap][Dab][Dab][dF]L[Dab][Dab]T; lactam 4-C) | 1 (≈ 0.846 µM) | 2 (≈ 1.69 µM) | 1 (≈ 0.846 µM) | 2 (≈ 1.69 µM) | 
5 | CC(C)CCSSCCOC(=O)N[C@H](C(=O)N[C@@H](CCN)C(=O)N[C@H]1CCNC(=O)[C@H]([C@@H](C)O)NC(=O)[C@H](CCN)NC(=O)[C@H](CCN)NC(=O)[C@H](CC(C)C)NC(=O)[C@@H](Cc2ccccc2)NC(=O)[C@H](CCN)NC1=O)[C@@H](C)O (X2-T[Dab][Dab][Dab][dF]L[Dab][Dab]T; lactam 3-C) |  | 8 (≈ 6.84 µM) | 8 (≈ 6.84 µM) | 2 (≈ 1.71 µM) | 0.9
6 | CC(C)C[C@@H]1NC(=O)[C@@H](Cc2ccccc2)NC(=O)[C@H](CCN)NC(=O)[C@@H](NC(=O)[C@H](CCN)NC(=O)[C@@H](NC(=O)OCCSSCc2cccc(Cl)c2)[C@@H](C)O)CCNC(=O)[C@H]([C@@H](C)O)NC(=O)[C@H](CCN)NC(=O)[C@H](CCN)NC1=O (X3-T[Dab][Dab][Dab][dF]L[Dab][Dab]T; lactam 3-C) |  | 4 (≈ 3.27 µM) | 1 (≈ 0.817 µM) | 1 (≈ 0.817 µM) | 1.3
7 | CC(C)CCSSC(C)(C)[C@@H](N)C(=O)N[C@H](C(=O)N[C@@H](CCN)C(=O)N[C@H]1CCNC(=O)[C@H]([C@@H](C)O)NC(=O)[C@H](CCN)NC(=O)[C@H](CCN)NC(=O)[C@H](CC(C)C)NC(=O)[C@@H](Cc2ccccc2)NC(=O)[C@H](CCN)NC1=O)[C@@H](C)O (H-[dPen](S(3-Methylbutyl))T[Dab][Dab][Dab][dF]L[Dab][Dab]T; lactam 4-C) | 4 (≈ 3.34 µM) | 2 (≈ 1.67 µM) | 2 (≈ 1.67 µM) | 2 (≈ 1.67 µM) | 
8 | CC(C)C[C@@H]1NC(=O)[C@@H](Cc2ccccc2)NC(=O)[C@H](CCN)NC(=O)[C@@H](NC(=O)[C@H](CN)NC(=O)[C@@H](NC(=O)OCCSSCc2cccc(Cl)c2)[C@@H](C)O)CCNC(=O)[C@H]([C@@H](C)O)NC(=O)[C@H](CCN)NC(=O)[C@H](CCN)NC1=O (X3-T[Dap][Dab][Dab][dF]L[Dab][Dab]T; lactam 3-C) |  | 8 (≈ 6.61 µM) | 4 (≈ 3.31 µM) | 4 (≈ 3.31 µM) | 0.8
9 | CC(C)CCSSC(C)(C)[C@@H](N)C(=O)N[C@H](C(=O)N[C@@H](CCN)C(=O)N[C@H]1CCNC(=O)[C@H]([C@@H](C)O)NC(=O)[C@H](CCN)NC(=O)[C@H](CCN)NC(=O)[C@H](CC(C)C)NC(=O)[C@@H](CC(C)C)NC(=O)[C@H](CCN)NC1=O)[C@@H](C)O (H-[dPen](S(3-Methylbutyl))T[Dab][Dab][Dab][dL]L[Dab][Dab]T; lactam 4-C) | 4 (≈ 3.44 µM) | 2 (≈ 1.72 µM) | 2 (≈ 1.72 µM) | 2 (≈ 1.72 µM) | 
10 | CC(C)CCSSC(C)(C)[C@@H](N)C(=O)N[C@H](C(=O)N[C@@H](CN)C(=O)N[C@H]1CCNC(=O)[C@H]([C@@H](C)O)NC(=O)[C@H](CCN)NC(=O)[C@H](CCN)NC(=O)[C@H](CC(C)C)NC(=O)[C@@H](CC(C)C)NC(=O)[C@H](CCN)NC1=O)[C@@H](C)O (H-[dPen](S(3-Methylbutyl))T[Dap][Dab][Dab][dL]L[Dab][Dab]T; lactam 4-C) | 2 (≈ 1.74 µM) | 2 (≈ 1.74 µM) | 1 (≈ 0.871 µM) | 2 (≈ 1.74 µM) | 
11 | CC(C)CCSSCCOC(=O)N[C@H](C(=O)N[C@H](CO)C(=O)N[C@H]1CCNC(=O)[C@H]([C@@H](C)O)NC(=O)[C@H](CCN)NC(=O)[C@H](CCN)NC(=O)[C@H](CC(C)C)NC(=O)[C@@H](Cc2ccccc2)NC(=O)[C@H](CCN)NC1=O)[C@@H](C)O (X2-T[dS][Dab][Dab][dF]L[Dab][Dab]T; lactam 3-C) |  | 4 (≈ 3.46 µM) | 2 (≈ 1.73 µM) | 4 (≈ 3.46 µM) | 
12 | CC(C)C[C@@H]1NC(=O)[C@@H](Cc2ccccc2)NC(=O)[C@H](CCN)NC(=O)[C@@H](NC(=O)[C@H](CCN)NC(=O)[C@@H](NC(=O)CCSSCCC2CCCCC2)[C@@H](C)O)CCNC(=O)[C@H]([C@@H](C)O)NC(=O)[C@H](CCN)NC(=O)[C@H](CCN)NC1=O ([Mpa](S(2-cyclohexylethyl))T[Dab][Dab][Dab][dF]L[Dab][Dab]T; lactam 4-C) |  | 4 (≈ 3.35 µM) | 2 (≈ 1.68 µM) | 2 (≈ 1.68 µM) | 
13 | CC(C)C[C@@H]1NC(=O)[C@@H](Cc2ccccc2)NC(=O)[C@H](CCN)NC(=O)[C@@H](NC(=O)[C@H](CCN)NC(=O)[C@@H](NC(=O)CCSSc2ccc(Oc3ccccc3)cc2)[C@@H](C)O)CCNC(=O)[C@H]([C@@H](C)O)NC(=O)[C@H](CCN)NC(=O)[C@H](CCN)NC1=O ([Mpa](Phenylthio(4-OPh))T[Dab][Dab][Dab][dF]L[Dab][Dab]T; lactam 4-C) |  | 8 (≈ 6.39 µM) | 2 (≈ 1.6 µM) | 2 (≈ 1.6 µM) | 
14 | CC(C)C[C@@H]1NC(=O)[C@@H](Cc2ccccc2)NC(=O)[C@H](CCN)NC(=O)[C@@H](NC(=O)[C@H](CCN)NC(=O)[C@@H](NC(=O)[C@H](N)CSSCCC2CCCCC2)[C@@H](C)O)CCNC(=O)[C@H]([C@@H](C)O)NC(=O)[C@H](CCN)NC(=O)[C@H](CCN)NC1=O [drawing 128] (H-[dC](S(2-cyclohexylethyl))T[Dab][Dab][Dab][dF]L[Dab][Dab]T; lactam 4-C) | 0.5 (≈ 0.414 µM) | 1 (≈ 0.827 µM) |  | 2 (≈ 1.65 µM) | 1.2
15 | CC(C)CCCCSSCCC(=O)N[C@H](C(=O)N[C@@H](CCN)C(=O)N[C@H]1CCNC(=O)[C@H]([C@@H](C)O)NC(=O)[C@H](CCN)NC(=O)[C@H](CCN)NC(=O)[C@H](CC(C)C)NC(=O)[C@@H](Cc2ccccc2)NC(=O)[C@H](CCN)NC1=O)[C@@H](C)O ([Mpa](X5)T[Dab][Dab][Dab][dF]L[Dab][Dab]T; lactam 4-C) |  | 4 (≈ 3.39 µM) | 2 (≈ 1.69 µM) | 2 (≈ 1.69 µM) | 
